# Experimental data taken from patent US9585929B2 (ZHEJIANG KANGLAITE GROUP CO., LTD., priority 2014, dated 2017).
# Structures can show the parent of a compound that is named as a salt. Marks after values point to notes of the source that are not given here.
# What was measured:
# A549 human lung cancer = assay: Xenograft model of A549 human lung cancer inoculated subcutaneously in nude mice; type: in vivo, BALB/C nude mice
# Experimental: (§11) A549 Human lung cancer cells cryopreserved in liquid nitrogen were recovered, and incubated in a 37 incubator under 5% CO2. After being subcultured, cells in a logarithmic growth stage were distributed with normal saline to be a cell suspension in a concentration of 1-2×10^7 cells/ml. The cell suspension was inoculated into BALB/C nude mice (SPF grade, 18-20 g, 6 weeks old, male) subcutaneously at right axillary. The tumor tissues were aseptically taken from the 2nd generation of xenograft model of A549 human lung cancer in a vigorous growth stage and cut into small uniform pieces in the size of 1-2 mm^3. The right axillary of each nude mouse was inoculated one piece subcutaneously via a trocar. When the inoculated tumor could be touched, the mice were randomly grouped and administered according to the experimental design program. All contacted feed, padding, cages and equipment, etc., should be autoclaved prior to use. The nude mice were fed in a laminar flow rack. Tumor sizes and animal weights were observed and tested dynamically. Mice in each group were sacrificed 3 weeks later or so, and tumors were surgically removed and weighed. The inhibition rate on tumor was calculated according to the following formula: Inhibition rate %=[(Mean tumor weight of the control group−mean tumor weight of the treatment group)/mean tumor weight of the control group]×100%;
# (§12) Q value of antitumor effect in drug combination was calculated according to Jin's formula: Q=Ea+b/(Ea+Eb−Ea×Eb) Wherein Ea+b=the tumor inhibition rate of drug combination, Ea or Eb=the tumor inhibition rate of drug A or drug B, respectively. If Q value=0.85-1.15, an additive effect (+) was shown; if Q value>1.15, a synergistic effect (++) was shown.
# [1] = test system: PANC-1 human pancreatic cancer; assay: PANC-1 human pancreatic cancer model in nude mice; type: in vivo, BALB/C nude mice; conditions: Gemcitabine 60 mg/kg iv × 1
# Experimental: as §12
# PANC-1 human pancreatic cancer cells: inoculated in BALB/C nude mice, 16-18 g, female
# Tumor blocks of well-grown PANC-1 human pancreatic cancer were inoculated subcutaneously in 4-week-old female BALB/C nude mice. The nude mice were grouped randomly and administered. One week after the end of the administration, the mice were sacrificed and dissected. Tumor blocks were taken out and weighed. Differences of tumor weight between each experimental group and the control group were compared and the tumor inhibition rates were calculated.
# SMMC-7721 human hepatoma = assay: Xenograft model of SMMC-7721 human hepatoma inoculated subcutaneously in nude mice; type: in vivo
# Experimental: A549 Human lung cancer cells cryopreserved in liquid nitrogen were recovered, and incubated in a 37 incubator under 5% CO2. After being subcultured, cells in a logarithmic growth stage were distributed with normal saline to be a cell suspension in a concentration of 1-2×10^7 cells/ml. The cell suspension was inoculated into BALB/C nude mice (SPF grade, 18-20 g, 6 weeks old, male) subcutaneously at right axillary. The tumor tissues were aseptically taken from the 2nd generation of xenograft model of A549 human lung cancer in a vigorous growth stage and cut into small uniform pieces in the size of 1-2 mm^3. The right axillary of each nude mouse was inoculated one piece subcutaneously via a trocar. When the inoculated tumor could be touched, the mice were randomly grouped and administered according to the experimental design program. […] The nude mice were fed in a laminar flow rack. Tumor sizes and animal weights were observed and tested dynamically. Mice in each group were sacrificed 3 weeks later or so, and tumors were surgically removed and weighed. The inhibition rate on tumor was calculated according to the following formula: Inhibition rate %=[(Mean tumor weight of the control group−mean tumor weight of the treatment group)/mean tumor weight of the control group]×100%;
# as §12
# QGY human hepatoma = assay: Xenograft model of QGY human hepatoma inoculated subcutaneously in nude mice
# Experimental: as §11, §12
# S180 sarcoma = S180 sarcoma model in mice; type: in vivo, Kunmin mice
# Experimental: The injection of the invention (10 g/100 ml), Cyclophosphamide (CTX), Mitoxantrone (DHAD), Mitomycin (MMC) and normal saline
# Ascitic fluid of mice having well-grown […] sarcoma was diluted with normal saline (1:4) to obtain a cell suspension of about 1-2×10^7 cells/ml. Each mouse was inoculated with 0.2 ml of the suspension subcutaneously at the right axilla, and the mice were grouped randomly. The administration began from the next day according to the dosage program in Table 7. On the tenth day after the inoculation of S180, animals were sacrificed via cervical dislocation and dissected to take out the tumor block. Weights of tumor were compared and inhibition rates were calculated for each group.
# LM-3 human hepatoma = assay: Xenograft model of LM-3 human hepatoma inoculated subcutaneously in nude mice
# Experimental: The injection of the invention (10 g/100 ml), cyclophosphamide (Jiangsu Hengrui Medicine Co., Ltd), blank fat emulsion and normal saline
# W256 cancer sarcoma = W256 cancer sarcoma model in rats; type: in vivo, Wistar rats
# Experimental: The injection of the invention (10 g/100 ml), Cyclophosphamide (CTX) and normal saline
# W256 cancer sarcoma: inoculated in Wistar rats, 50-60 g, female
# Ascitic fluid of rats with well-grown W256 cancer sarcoma was diluted with normal saline to obtain a cell suspension of about 1-2×10^7 cells/ml. Each rat was inoculated with 0.2 ml of the suspension at the right axilla subcutaneously. The rats were grouped randomly next day and began administration. Two weeks later, animals were sacrificed and dissected to take out the tumor block. Weights of tumor were compared between each experimental group and the control group and tumor inhibition rates were calculated.
# [2] = test system: FC-3M human prostate cancer; assay: FC-3M human prostate cancer model in nude mice; type: in vivo, BALB/C nude mice
# Experimental: The injection of the invention (10 g/100 ml), Leuprolide acetate (Lupron) and normal saline
# Tumor blocks of well-grown FC-3M human prostate cancer were homogenized in normal saline (1:4). Each nude mouse was inoculated with 0.2 ml of the suspension at the right axilla subcutaneously, and the mice were grouped randomly. The administration began from the next day. 21 Days after the inoculation, the mice were sacrificed. Tumor blocks were taken out and weighed. Differences of tumor weight between each experimental group and the control group were compared and the tumor inhibition rates were calculated.
# [3] = test system: MDA-MB-435 human breast cancer; assay: MDA-MB-435 human breast cancer model in nude mice; type: in vivo, BALB/C nude mice; conditions: Paclitaxel 50 mg/kg ip × 1
# Experimental: (§1) Each nude mouse was inoculated with 0.2 ml of the suspension at the right axilla subcutaneously, and the mice were grouped randomly. The administration began from the 7th day after the inoculation. 18 Days after the inoculation, the mice were sacrificed. Tumor blocks were taken out and weighed. Differences of tumor weight between each experimental group and the control group were compared, and tumor inhibition rates and Q values were calculated.
# [4] = test system: SKOV3 (human ovarian cancer cells); assay: MTT inhibition of tumor cell growth in vitro; type: cell-based; conditions: SK-OV-3
# Experimental: (§2) The inhibition effects of samples on the above-mentioned cell lines were detected by using MTT method. The specific procedures were as follows:
# (§3) (1) Cell culture: (a) Storaged cells were taken out from the liquid nitrogen, thawed quickly in a 37 water bath, then aseptically transferred into 6 ml of cellular medium in a 10 ml centrifugal tube, centrifuged at 1000 rpm for 5 min. The supernatant was discarded, then the precipitated cells were re-suspensed in 5-6 ml cellular media by pipetting and transferred into a flask in a 37 incubator for cell culture; (b) Next day, the flask was taken out from the incubator and the used medium was discarded, then the cells were incubated in 5-6 ml fresh medium in the 37 incubator; (c) On the third day, the flask was taken out from the incubator and the used medium was discarded, then 2-3 ml of PBS (pH7.4) was added into the flask with rocking for cleaning it and the used PBS was discarded. Such a cellular cleaning step was repeated once again. 3-5 drops of 0.25% trypsin solution were added into the flask with sloshing, thus well-distributed in it. The flask was capped and placed in a 37 incubator for about 3 min, and the separation of cells from the flask wall was observed under the microscope. 2 ml of cellular medium was added and cells were separated completely from the flask wall by pipetting, then the cell suspension was transferred into 2 separate clean flasks, each containing 5-6 ml medium. The cell suspension was well-distributed by pipetting, then the flask was placed in a 37 incubator. (d) Step (c) was repeated every other day. In the whole cultivation process, adherent cells were not allowed to grow too dense and suspension cells were always maintained at a logarithmic growth stage.
# (§4) This solution was diluted in a gradient dilution with PBS to obtain a set of sample solutions in the concentration of 10 mg/ml, 5000 μg/ml, 2500 μg/ml, 1250 μg/ml, 625 μg/ml and 312.5 μg/ml, respectively.
# (§5) (3) Each diluted sample solution was added into duplicated wells of a 96 well flat-bottom microplate (10 μl/well). The correspondingly diluted DMSO solutions, as controls, were added into the wells of the microplate.
# (§6) (4) Cells in a logarithmic growth stage were trypsinized and washed, then re-suspended in the medium containing 10% calf serum. The number of living cells was counted in Trypan blue dye exclusion method and cell suspensions were adjusted into a density of 2×10^5 cell/ml.
# (§7) (5) The cell-contained 96 well flat-bottom microplate was placed in a 37 incubator and cells were incubated under 5% CO2 for 48 h.
# (§8) (6) 20 μl of 5 mg/ml MTT solution was added into each well and cells were incubated continuously in the incubator for 3-4 h.
# (§9) (7) 100 μl of crystal dissolving solution was added into each well and cells were incubated continuously in the incubator overnight, so as to dissolve the resulted formazan crystals sufficiently. Then, the absorbance value was measured at 570 nm for each well.
# (§10) (8) Based on absorbance values, inhibition rates on the cell growth were calculated for sample groups of various concentrations. The calculation formula was as follows: (1−mean absorbance of experimental wells/mean absorbance of control wells)×100%
# [5] = test system: SMMC-7721 (human hepatic cancer cells); assay: MTT inhibition of tumor cell growth in vitro; type: cell-based
# Experimental: as §2, §3, §4, §5, §6, §7, §8, §9, §10
# [6] = test system: A549 (human lung cancer cells); assay: MTT inhibition of tumor cell growth in vitro; type: cell-based
# Experimental: as §2, §3, §4, §5, §6, §7, §8, §9, §10
# [7] = test system: Bcap-37 (human breast cancer cells); assay: MTT inhibition of tumor cell growth in vitro; type: cell-based; conditions: Bcap37
# Experimental: as §2, §3, §4, §5, §6, §7, §8, §9, §10
# [8] = test system: MCF-7 (human breast cancer cells); assay: MTT inhibition of tumor cell growth in vitro; type: cell-based; conditions: MCF7
# Experimental: as §2, §3, §4, §5, §6, §7, §8, §9, §10
# [9] = test system: HepG-2 (human hepatic cancer cells); assay: MTT inhibition of tumor cell growth in vitro; type: cell-based; conditions: HepG2
# Experimental: as §2, §3, §4, §5, §6, §7, §8, §9, §10
# [10] = test system: PANC-1 (human pancreatic cancer cells); assay: MTT inhibition of tumor cell growth in vitro; type: cell-based
# Experimental: as §2, §3, §4, §5, §6, §7, §8, §9, §10
# [11] = test system: H460 (human lung cancer cells); assay: MTT inhibition of tumor cell growth in vitro; type: cell-based; conditions: NCI-H460
# Experimental: as §2, §3, §4, §5, §6, §7, §8, §9, §10
# [12] = test system: Bcap-37 human breast cancer; assay: Bcap-37 human breast cancer model in nude mice; type: in vivo, BALB/C nude mice; conditions: Docetaxel 25 mg/kg ip × 1
# Experimental: The injection of the invention (10 g/100 ml), Docetaxel injection (Taxotere, 20 mg/vial) and normal saline
# Bcap-37 human breast cancer: inoculated in BALB/C nude mice (SPF grade), 18-20 g, female
# as §1, with “Tumor blocks of well-grown Bcap-37 human breast cancer were homogenized in normal saline to obtain cell suspensions in the concentration of 1-2×10^7 cells/ml. Each” for “Each”, “20” for “18”
# [13] = Gemcitabine 25 mg/kg iv × 3 q 3 d
# [14] = Gemcitabine 50 mg/kg iv × 3 q 3 d
# [15] = cyclophosphamide 15 mg/kg ip × 7 qd
# [16] = cyclophosphamide 30 mg/kg ip × 7 qd
smiles,measurement,setting,value
N.N.[Cl][Pt][Cl] [Cisplatin],Inhibition rate,A549 human lung cancer; Cisplatin 1 mg/kg ip × 7 qd,42.13%
same,Weight of animal end,A549 human lung cancer; Cisplatin 1 mg/kg ip × 7 qd,24.0 g
same,Weight of animal start,A549 human lung cancer; Cisplatin 1 mg/kg ip × 7 qd,20.2 g
same,Weight of tumor x ± SD,A549 human lung cancer; Cisplatin 1 mg/kg ip × 7 qd,0.765 ± 0.11 g
same,Inhibition rate,A549 human lung cancer; Cisplatin 2 mg/kg ip × 7 qd,86.31%
same,Weight of animal end,A549 human lung cancer; Cisplatin 2 mg/kg ip × 7 qd,23.1 g
same,Weight of tumor x ± SD,A549 human lung cancer; Cisplatin 2 mg/kg ip × 7 qd,0.181 ± 0.06 g
"Nc1ccn([C@@H]2O[C@H](CO)[C@@H](O)C2(F)F)c(=O)n1 [Gemcitabine, gemcitabine hydrochloride]",Inhibition rate,[1],24.61%
same,Weight of tumor x ± SD,[1],0.1443 ± 0.081 g
same,Inhibition rate,SMMC-7721 human hepatoma; [13],49.14%
same,Weight of animal end,SMMC-7721 human hepatoma; [13],25.1 g
same,Weight of animal start,SMMC-7721 human hepatoma; [13],20.1 g
same,Weight of tumor x ± SD,SMMC-7721 human hepatoma; [13],0.886 ± 0.24 g
same,Inhibition rate,SMMC-7721 human hepatoma; [14],87.66%
same,Weight of animal end,SMMC-7721 human hepatoma; [14],24.2 g
same,Weight of tumor x ± SD,SMMC-7721 human hepatoma; [14],0.215 ± 0.11 g
COc1cccc2c1C(=O)c1c(O)c3c(c(O)c1C2=O)C[C@@](O)(C(=O)CO)C[C@@H]3O[C@H]1C[C@H](N)[C@H](O)[C@H](C)O1 [Adriamycin],Inhibition rate,QGY human hepatoma; Adriamycin 1 mg/kg ip × 7 qd,38.41%
same,Weight of animal start,QGY human hepatoma; Adriamycin 1 mg/kg ip × 7 qd,21.3 g
same,Weight of tumor x ± SD,QGY human hepatoma; Adriamycin 1 mg/kg ip × 7 qd,0.712 ± 0.18 g
same,Inhibition rate,QGY human hepatoma; Adriamycin 2 mg/kg ip × 7 qd,70.76%
same,Weight of tumor x ± SD,QGY human hepatoma; Adriamycin 2 mg/kg ip × 7 qd,0.338 ± 0.17 g
"O=P1(N(CCCl)CCCl)NCCCO1 (stereo not drawn) [cyclophosphamide, Cyclophosphamide]",Inhibition rate,"S180 sarcoma; CTX 30 mg/kg ip × 2(1, 3)",41.77* %
same,Weight of tumor x ± SD,"S180 sarcoma; CTX 30 mg/kg ip × 2(1, 3)",0.92 ± 0.21 g
same,Inhibition rate,LM-3 human hepatoma; [15],27.82%
same,Weight of animal end,LM-3 human hepatoma; [15],24.8 g
same,Weight of animal start,LM-3 human hepatoma; [15],20.7 g
same,Weight of tumor x ± SD,LM-3 human hepatoma; [15],1.108 ± 0.09 g
same,Inhibition rate,LM-3 human hepatoma; [16],82.74%
same,Weight of animal end,LM-3 human hepatoma; [16],25.0 g
same,Weight of animal start,LM-3 human hepatoma; [16],20.5 g
same,Weight of tumor x ± SD,LM-3 human hepatoma; [16],0.265 ± 0.12 g
same,Inhibition rate,"W256 cancer sarcoma; CTX 10 mg/kg iv × 2(3, 5)",37.83* %
same,Weight of tumor x ± SD,"W256 cancer sarcoma; CTX 10 mg/kg iv × 2(3, 5)",2.12 ± 1.22 g
same,Inhibition rate,W256 cancer sarcoma; CTX 30 mg/kg iv × 7,87.68** %
same,Weight of tumor x ± SD,W256 cancer sarcoma; CTX 30 mg/kg iv × 7,0.42 ± 0.85 g
"CCNC(=O)[C@@H]1CCCN1C(=O)[C@H](CCCNC(=N)N)NC(=O)[C@H](CC(C)C)NC(=O)[C@@H](CC(C)C)NC(=O)[C@H](Cc1ccc(O)cc1)NC(=O)[C@H](CO)NC(=O)[C@H](Cc1c[nH]c2ccccc12)NC(=O)[C@H](Cc1c[nH]cn1)NC(=O)[C@@H]1CCC(=O)N1 [Lupron, Leuprolide acetate]",Inhibition rate,[2]; Lupron 0.75 ml/kg iv × 1,36.36** %
same,Weight of tumor x ± SD,[2]; Lupron 0.75 ml/kg iv × 1,0.98 ± 0.23 g
same,Inhibition rate,[2]; Lupron 1.5 ml/kg iv × 1,50.65** %
same,Weight of tumor x ± SD,[2]; Lupron 1.5 ml/kg iv × 1,0.76 ± 0.14 g
"CC(=O)O[C@H]1C(=O)[C@@]2(C)[C@H]([C@H](OC(=O)c3ccccc3)[C@]3(O)C[C@H](OC(=O)[C@H](O)[C@@H](NC(=O)c4ccccc4)c4ccccc4)C(C)=C1C3(C)C)[C@]1(OC(C)=O)CO[C@@H]1C[C@@H]2O [Taxol, paclitaxel]",Inhibition rate,[3],62.87%
same,IC50,[4],0.22 µg/mL
same,IC50,[5],0.41 µg/mL
same,IC50,[6],0.46 µg/mL
same,IC50,[7],0.28 µg/mL
same,IC50,[8],0.18 µg/mL
same,IC50,[9],0.45 µg/mL
same,IC50,[10],0.44 µg/mL
same,IC50,[11],0.49 µg/mL
"O=C1c2c(O)ccc(O)c2C(=O)c2c(NCCNCCO)ccc(NCCNCCO)c21 [DHAD, Mitoxantrone]",Inhibition rate,"S180 sarcoma; DHAD 2 mg/kg ip × 2(1, 3)",50.63** %
same,Weight of tumor x ± SD,"S180 sarcoma; DHAD 2 mg/kg ip × 2(1, 3)",0.78 ± 0.20 g
CC(=O)O[C@@]12CO[C@@H]1C[C@H](O)[C@@]1(C)C(=O)[C@H](O)C3=C(C)[C@@H](OC(=O)[C@H](O)[C@@H](NC(=O)OC(C)(C)C)c4ccccc4)C[C@@](O)([C@@H](OC(=O)c4ccccc4)[C@H]21)C3(C)C [Docetaxel],Inhibition rate,[12],56.80%
same,Weight of tumor x ± SD,[12],1.27 ± 0.88 g
"CO[C@@]12[C@H](COC(N)=O)C3=C(C(=O)C(C)=C(N)C3=O)N1C[C@@H]1N[C@@H]12 [MMC, Mitomycin]",Inhibition rate,"S180 sarcoma; MMC 1.5 mg/kg ip × 2(1, 3)",38.61* %
same,Weight of tumor x ± SD,"S180 sarcoma; MMC 1.5 mg/kg ip × 2(1, 3)",0.97 ± 0.19 g
